These results are taken from ChEMBL document CHEMBL1145369, “The discovery of 2-amino-3,5-diarylbenzamide inhibitors of IKK-alpha and IKK-beta kinases” (Bioorg Med Chem Lett, 2007).

The IC50 is the concentration needed to halve the response being measured. High values mean weaker potency in that assay, low ones greater potency in that assay.

In assay [1] the target is T1, Inhibitor of nuclear factor kappa-B kinase subunit beta (Homo sapiens, UniProt O14920).
T1 sequence (O14920 whole entry): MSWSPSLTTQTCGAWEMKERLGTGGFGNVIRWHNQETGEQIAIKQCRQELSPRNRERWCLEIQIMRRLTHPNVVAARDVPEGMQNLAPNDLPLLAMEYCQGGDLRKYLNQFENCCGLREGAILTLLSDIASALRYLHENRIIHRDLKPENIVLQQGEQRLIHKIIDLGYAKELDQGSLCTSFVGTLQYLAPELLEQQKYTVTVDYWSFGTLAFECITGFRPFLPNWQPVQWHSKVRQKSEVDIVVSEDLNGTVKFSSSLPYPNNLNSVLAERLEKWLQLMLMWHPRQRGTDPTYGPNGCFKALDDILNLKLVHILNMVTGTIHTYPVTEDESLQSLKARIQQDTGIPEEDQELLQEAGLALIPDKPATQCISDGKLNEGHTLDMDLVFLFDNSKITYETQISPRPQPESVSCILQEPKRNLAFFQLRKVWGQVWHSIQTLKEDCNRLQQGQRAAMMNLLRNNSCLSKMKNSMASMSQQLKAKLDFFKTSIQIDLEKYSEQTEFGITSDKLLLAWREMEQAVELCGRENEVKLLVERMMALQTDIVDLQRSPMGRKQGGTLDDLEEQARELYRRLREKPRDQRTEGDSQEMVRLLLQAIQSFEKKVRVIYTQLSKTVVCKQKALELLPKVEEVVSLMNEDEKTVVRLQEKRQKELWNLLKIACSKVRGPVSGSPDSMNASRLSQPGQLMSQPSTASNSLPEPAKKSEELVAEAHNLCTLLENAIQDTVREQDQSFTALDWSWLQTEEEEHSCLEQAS
Description: Inhibition of human recombinant GST-IKKbeta by TR-FRET assay

Assay [2] concerns the target T2, Inhibitor of nuclear factor kappa-B kinase subunit epsilon (Homo sapiens, UniProt Q14164).
T2 sequence (Q14164 whole entry): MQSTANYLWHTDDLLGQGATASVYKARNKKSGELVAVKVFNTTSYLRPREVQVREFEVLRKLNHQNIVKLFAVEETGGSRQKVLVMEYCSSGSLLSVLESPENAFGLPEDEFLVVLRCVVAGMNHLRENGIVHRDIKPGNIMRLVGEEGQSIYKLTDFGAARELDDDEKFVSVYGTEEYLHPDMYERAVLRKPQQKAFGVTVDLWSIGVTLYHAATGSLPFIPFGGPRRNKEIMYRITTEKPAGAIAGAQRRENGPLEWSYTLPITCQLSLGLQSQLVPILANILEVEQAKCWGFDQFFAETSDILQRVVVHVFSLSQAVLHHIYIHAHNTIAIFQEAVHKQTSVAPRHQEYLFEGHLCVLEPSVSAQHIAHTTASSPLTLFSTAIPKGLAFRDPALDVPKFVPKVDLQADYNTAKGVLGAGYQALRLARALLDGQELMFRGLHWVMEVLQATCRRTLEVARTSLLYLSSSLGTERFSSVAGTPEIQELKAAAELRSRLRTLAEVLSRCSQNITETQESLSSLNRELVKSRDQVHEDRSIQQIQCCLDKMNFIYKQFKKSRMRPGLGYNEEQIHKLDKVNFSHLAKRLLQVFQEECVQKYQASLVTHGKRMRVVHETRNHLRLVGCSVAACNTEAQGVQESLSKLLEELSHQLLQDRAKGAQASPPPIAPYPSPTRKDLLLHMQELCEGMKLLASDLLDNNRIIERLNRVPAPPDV
Description: Inhibition of human recombinant FLAG-IKKepsilon by TR-FRET assay

The subject of a further assay is Fibroblast. The assay can be described thus: Inhibition of NF-kappaB translocation in TNF-alpha-induced human lung fibroblast cells. It is filed as functional, cell-based.
The next assay concerns PBMC. Nature of the assay: Inhibition of LPS-stimulated TNFalpha release in PBMC. The following applies: Homo sapiens. Type of assay: functional, cell-based.
Assay [3] in a line: Inhibition of LPS-stimulated IL6 release in PBMC. Type of assay: functional. The conditions noted are these: Homo sapiens.

The source made the active and inactive calls. No cut-off for these calls is given here.

In the case of `NC(=O)c1cc(-c2ccc(F)cc2)ccc1N`, the IC50 in assay [1] and in assay [2] was over 15.8 µM each time.

Regarding `NC(=O)c1cc(-c2ccccc2)cc(-c2ccc(S(N)(=O)=O)cc2)c1N`, the figures for the IC50 in assay [1] and in assay [2] were 0.251 µM and over 15.8 µM, respectively.

Consider `CNC(=O)c1cc(-c2ccc(F)cc2)cc(-c2ccc(S(C)(=O)=O)cc2)c1N`, for which the IC50 in assay [1] was over 15.8 µM.

As to `NC(=O)c1cc(-c2ccc(F)cc2)cc(-c2ccncc2)c1N` [GSK-620503A], the IC50 in assay [1] was 1.58 µM; in assay [2] it was over 15.8 µM.

As for `NC(=O)c1cc(-c2ccncc2)cc(-c2ccccc2)c1N` [GSK-625137A], the IC50 in assay [1] and in assay [2] was 3.98 µM each time.

Regarding `COc1c(C(N)=O)cc(-c2ccccc2)cc1-c1ccncc1`, the IC50 in assay [1] was over 15.8 µM.

For `NC(=O)c1cc(-c2ccccc2)ccc1N`, the IC50 in assay [1] is 15.8 µM; in assay [2], over 15.8 µM.

Regarding `NC(=O)c1cc(-c2ccccc2)cc(-c2ccc(S(=O)(=O)NNC3CC3)cc2)c1N`, the IC50 was 0.316 µM in assay [1] and over 15.8 µM in assay [2].

Take `CS(=O)(=O)Nc1ccc(-c2cc(-c3ccc(Cl)cc3)cc(C(N)=O)c2N)cc1`: the IC50 is 1.58 µM in assay [1] and over 15.8 µM in assay [2].

As for `CS(=O)(=O)Nc1cccc(-c2cc(-c3ccccc3)cc(C(N)=O)c2N)c1`, the midpoint of inhibition in assay [1], the IC50, lay at 7.94 µM.

Regarding `NC(=O)c1cc(-c2ccccc2)cc(-c2ccc(CS(N)(=O)=O)cc2)c1N`, the values for the IC50 in assay [1] and in assay [2] were 3.98 µM and over 15.8 µM, respectively.

In the case of `CN(C)c1cccc(-c2cc(-c3ccccc3)cc(C(N)=O)c2N)c1`, the IC50 in assay [1] and in assay [2] was over 15.8 µM throughout.

On to `NCCNNS(=O)(=O)c1ccc(-c2cc(-c3ccccc3)cc(C(N)=O)c2N)cc1`, for which the IC50 in assay [1] was 0.158 µM; in assay [2], over 15.8 µM.

As to `COc1c(C(N)=O)cc(-c2ccncc2)cc1-c1ccccc1`, the IC50 in assay [1] was over 15.8 µM.

For the compound `NC(=O)c1cc(-c2ccccc2)cc(-c2ccc(S(=O)(=O)NNCCCN3CCOCC3)cc2)c1N`, the IC50 is 0.316 µM in assay [1] and over 15.8 µM in assay [2].

In the case of `CNC(=O)c1cc(-c2ccc(F)cc2)cc(-c2ccc(S(=O)(=O)N3CCCC3)cc2)c1N` [GSK-635416A], the IC50 in assay [1] was over 15.8 µM.

On to `CN(C)S(=O)(=O)c1ccc(-c2cc(-c3ccncc3)cc(C(N)=O)c2O)cc1`, for which the IC50 in assay [1] is 7.94 µM; in assay [2], over 15.8 µM.

Turning to `COCCCNNS(=O)(=O)c1ccc(-c2cc(-c3ccccc3)cc(C(N)=O)c2N)cc1`, the IC50 in assay [1] was 0.251 µM; in assay [2], over 15.8 µM.

Regarding `NC(=O)c1cc(-c2ccc(Cl)cc2)cc(-c2ccc(S(N)(=O)=O)cc2)c1N`, the result in the assay with Fibroblast was Active. Besides, the IC50 with PBMC was 0.794 µM; in assay [3] it was 2 µM; in assay [1], 0.1 µM; in assay [2], over 15.8 µM.

Turning to `COc1cc2ncn(-c3cc(OCc4ccccc4S(C)(=O)=O)c(C#N)s3)c2cc1OC` [GSK-319347A], in assay [1], the IC50 was over 15.8 µM.

`CNS(=O)(=O)c1ccc(-c2cc(-c3ccccc3)cc(C(N)=O)c2O)cc1`: the figures for the IC50 in assay [1] and in assay [2] were 1 µM and over 15.8 µM, respectively.

For `NC(=O)c1cc(-c2ccccc2)cc(-c2ccc(S(=O)(=O)NNCCN3CCCC3)cc2)c1N`, the results for the IC50 in assay [1] and in assay [2] were 0.251 µM and over 15.8 µM, respectively.

In assay [1], `CS(=O)(=O)c1ccc(-c2cc(C(N)=O)c(N)c(-c3ccc(S(N)(=O)=O)cc3)c2)cc1` showed an IC50 of 0.158 µM.

With `NC(=O)c1cc(-c2ccc(F)cc2)cc(-c2ccc(S(N)(=O)=O)cc2)c1N`, the IC50 in assay [1] is 0.2 µM; in assay [2], over 15.8 µM.

`CN(C)CCCNNS(=O)(=O)c1ccc(-c2cc(-c3ccccc3)cc(C(N)=O)c2N)cc1`: the IC50 in assay [1] is 0.316 µM; in assay [2], over 15.8 µM.

As for `NC(=O)c1cc(-c2ccc(Cl)cc2)cc(-c2ccc(S(N)(=O)=O)cc2)c1O`, the values for the IC50 in assay [1] and in assay [2] were 1.58 µM and over 15.8 µM, respectively.

Consider `CS(=O)(=O)Nc1ccc(-c2cc(-c3ccccc3)cc(C(N)=O)c2N)cc1` [GSK-586581A], for which the IC50 in assay [1] is 1.58 µM; in assay [2], over 15.8 µM.

Take `NC(=O)c1cc(-c2ccccc2)cc(-c2cccc(S(N)(=O)=O)c2)c1N`: the figures for the 50% inhibitory concentration (IC50) in assay [1] and in assay [2] were 7.94 µM and over 15.8 µM, respectively.

`COc1c(C(N)=O)cc(-c2ccc(Cl)cc2)cc1-c1ccc(S(N)(=O)=O)cc1` [GSK-711701A] registered an IC50 in assay [1] of over 15.8 µM.

Take `CS(=O)(=O)c1ccc(-c2cc(C(N)=O)c(N)c(-c3ccc(S(=O)(=O)N4CCCC4)cc3)c2)cc1`: the IC50 in assay [1] is 0.398 µM.

Consider `NC(=O)c1cc(-c2ccc(F)cc2)cc(-c2ccc(S(=O)(=O)N3CCCC3)cc2)c1N`, for which the figures for the IC50 in assay [1] and in assay [2] were 0.631 µM and over 15.8 µM, respectively.

In the case of `NC(=O)c1cc(-c2ccncc2)cc(-c2ccc(S(N)(=O)=O)cc2)c1N`, the IC50 in assay [1] is 0.251 µM; in assay [2] it was 1.58 µM.

The compound `COc1ccc(-c2ccncc2)cc1C(N)=O` [GSK-605714A] gave an IC50 in assay [1] of over 15.8 µM.
